The values below come from publication PMC10439952, “JT002, a small molecule inhibitor of the NLRP3 inflammasome for the treatment of autoinflammatory disorders” (Scientific Reports, 2023).

What all share (type): cell-based
Assay [1] concerns TNFα production. Kind of assay: TNFα production in human PBMCs stimulated by LPS + ATP. The settings on record: Human PBMC. The protocol: (§1) Inflammasome activation and whole blood assays were essentially carried out as described earlier. Details can be found in the supplementary information section accompanying this publication. A protocol for blood draws from healthy volunteers and use of the blood in preclinical assays was approved by Western Institutional Review Board, Inc (Puyallup, WA, USA). Informed consent was obtained from each donor prior to the first blood draw.
(§2) Cell viability was determined by addition of an equal volume of CellTiter-Glo® 2.0 reagent (Promega) to the remaining cells/supernatant in each well. Intracellular Caspase-1 activity was measured using the Caspase-Glo® assay (Promega) according to the manufacturer’s instructions. The biochemical capsase-1 assay was conducted at Reaction Biology Corporation (Malvern, USA). Human IL-1β, IL-1α, and TNFα and mouse IL-1β were measured in cell culture supernatants using homogeneous time resolved fluorescence assay kits (HTRF, Cisbio, Codolet, France). Human IL-18 was measured in cell culture supernatants using an ELISA kit (R&D Systems, Minneapolis, MN, USA). Plasma IL-1β concentrations were determined by Quantikine® ELISA (R&D Systems, Minneapolis, MN).
(§3) 4H). MS: m/z 433.1 (M+H+). […]

For assay [2], the target named is T1, NLRP3 inflammasome (Mus musculus, UniProt Q8R4B8). Kind of assay: Inhibition of IL-1β production in mouse BMDMs stimulated by LPS + ATP. More on the design: host or cells: mouse PBMCs; mouse bone-marrow derived macrophages; mouse whole blood (C57BL/6 in the ex vivo study). The note with it: Mouse BMDM, read-out: Geo Av IC50, IL-1β. The protocol:
as §1, §2, §3

Assay [3] addresses T1, NLRP3 inflammasome. Briefly: Inhibition of IL-1β production in mouse BMDMs stimulated by LPS + cholesterol crystals. The note with it: Mouse BMDM, read-out: Geo Av IC50, IL-1β. Also noted: host or cells: mouse PBMCs; mouse bone-marrow derived macrophages; mouse whole blood (C57BL/6 in the ex vivo study). The protocol: as §1, §2, §3

T1 sequence (Q8R4B8 whole entry): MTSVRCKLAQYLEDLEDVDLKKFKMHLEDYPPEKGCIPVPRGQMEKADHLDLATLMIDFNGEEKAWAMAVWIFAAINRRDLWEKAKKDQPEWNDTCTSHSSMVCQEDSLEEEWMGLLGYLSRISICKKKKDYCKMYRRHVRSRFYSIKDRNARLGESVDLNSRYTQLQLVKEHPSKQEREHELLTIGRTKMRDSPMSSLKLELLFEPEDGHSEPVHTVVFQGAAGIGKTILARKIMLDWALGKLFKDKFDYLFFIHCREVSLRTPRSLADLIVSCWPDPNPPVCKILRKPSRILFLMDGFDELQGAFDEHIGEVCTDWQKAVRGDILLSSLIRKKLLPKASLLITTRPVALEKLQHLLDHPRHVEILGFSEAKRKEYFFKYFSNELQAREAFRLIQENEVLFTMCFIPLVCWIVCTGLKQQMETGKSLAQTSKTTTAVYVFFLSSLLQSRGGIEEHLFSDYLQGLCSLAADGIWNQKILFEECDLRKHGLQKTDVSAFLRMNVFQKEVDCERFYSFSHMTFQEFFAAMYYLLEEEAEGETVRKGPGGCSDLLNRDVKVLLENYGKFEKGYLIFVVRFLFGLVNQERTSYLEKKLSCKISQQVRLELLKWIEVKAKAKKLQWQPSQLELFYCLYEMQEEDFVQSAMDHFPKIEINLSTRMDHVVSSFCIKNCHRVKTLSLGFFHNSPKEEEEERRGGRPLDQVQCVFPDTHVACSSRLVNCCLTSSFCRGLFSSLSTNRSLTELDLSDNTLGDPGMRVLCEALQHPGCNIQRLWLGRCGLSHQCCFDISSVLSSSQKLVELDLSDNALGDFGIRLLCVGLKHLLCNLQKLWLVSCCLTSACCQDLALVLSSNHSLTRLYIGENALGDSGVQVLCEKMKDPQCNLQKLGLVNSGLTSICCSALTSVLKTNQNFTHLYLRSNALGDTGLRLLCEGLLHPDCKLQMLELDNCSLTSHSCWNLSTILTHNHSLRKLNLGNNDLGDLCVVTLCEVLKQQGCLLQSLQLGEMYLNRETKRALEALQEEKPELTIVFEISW

With `CO[C@@H]1COc2c(S(=O)(=O)NC(=O)Nc3c4c(cc5c3CCC5)CCC4)cnn2C1` [JT002], the “effect on TNFα production” value in assay [1] (JT002 concentrations up to 1 µM) is given as “no effect”. In addition, the 50% inhibitory concentration (IC50) in assay [1] (read-out: Geo Av IC50, TNFα) was more than 1000 nM; in assay [2], 5 nM; in assay [3], 2 nM.

By IC50 is commonly meant the point on the concentration scale where inhibition reaches its midpoint.
